The source of these data is ChEMBL document CHEMBL1201862, “PubChem BioAssay data set” (2004).

Each structure is given as a SMILES string. Calls of active or inactive are those of the source. For most assays here, no stated cut-off is given here; in the data, actives have a measured AC50 and inactives only a lower limit.

Assay [1] addresses T1, Histone-lysine N-methyltransferase NSD2 (Homo sapiens, UniProt O96028).
T1 sequence (O96028 whole entry): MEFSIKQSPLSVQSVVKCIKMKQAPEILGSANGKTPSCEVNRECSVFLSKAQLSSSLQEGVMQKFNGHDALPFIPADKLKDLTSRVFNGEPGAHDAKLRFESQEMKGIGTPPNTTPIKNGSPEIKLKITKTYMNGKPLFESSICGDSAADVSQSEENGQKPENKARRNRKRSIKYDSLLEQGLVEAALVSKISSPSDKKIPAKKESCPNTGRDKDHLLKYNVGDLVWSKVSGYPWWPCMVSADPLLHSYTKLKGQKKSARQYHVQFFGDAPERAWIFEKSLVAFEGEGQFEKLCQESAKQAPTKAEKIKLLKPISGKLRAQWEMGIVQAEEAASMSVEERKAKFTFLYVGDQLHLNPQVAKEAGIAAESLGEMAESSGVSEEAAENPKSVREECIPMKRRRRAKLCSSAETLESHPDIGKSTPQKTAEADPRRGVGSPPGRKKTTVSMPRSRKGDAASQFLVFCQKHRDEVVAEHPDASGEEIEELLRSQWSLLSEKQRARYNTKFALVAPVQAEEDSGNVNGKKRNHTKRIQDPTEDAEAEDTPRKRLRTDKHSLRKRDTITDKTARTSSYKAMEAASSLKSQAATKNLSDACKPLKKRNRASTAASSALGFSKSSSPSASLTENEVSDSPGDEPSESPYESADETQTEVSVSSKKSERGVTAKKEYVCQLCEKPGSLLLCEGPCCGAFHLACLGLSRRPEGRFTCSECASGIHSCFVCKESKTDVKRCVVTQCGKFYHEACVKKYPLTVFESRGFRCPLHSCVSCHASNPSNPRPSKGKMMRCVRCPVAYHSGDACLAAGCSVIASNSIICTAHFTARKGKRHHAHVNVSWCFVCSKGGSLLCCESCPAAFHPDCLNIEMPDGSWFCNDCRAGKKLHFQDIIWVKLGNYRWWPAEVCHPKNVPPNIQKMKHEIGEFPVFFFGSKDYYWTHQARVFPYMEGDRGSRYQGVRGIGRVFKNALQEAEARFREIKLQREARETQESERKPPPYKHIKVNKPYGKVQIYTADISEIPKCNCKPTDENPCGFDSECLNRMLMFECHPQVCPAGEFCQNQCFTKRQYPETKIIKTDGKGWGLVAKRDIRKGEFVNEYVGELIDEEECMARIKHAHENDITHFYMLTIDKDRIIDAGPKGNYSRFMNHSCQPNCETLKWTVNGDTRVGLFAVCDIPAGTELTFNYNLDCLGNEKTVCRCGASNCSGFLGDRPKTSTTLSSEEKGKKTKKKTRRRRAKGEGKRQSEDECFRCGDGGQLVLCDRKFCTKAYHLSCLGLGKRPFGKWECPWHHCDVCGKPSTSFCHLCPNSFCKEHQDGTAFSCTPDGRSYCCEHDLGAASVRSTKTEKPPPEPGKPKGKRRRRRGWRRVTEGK
It is filed as biochemical.

The next assay concerns the target Paired box protein Pax-8 (Homo sapiens, UniProt Q06710). Briefly: inhibitors of PAX8-driven TPO luciferase reporter, dose response, RMG-I cells, cherry-pick (AID 687027).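 Further: luciferase reporter driven by Pax8 target thyroperoxidase promoter measured by SteadyGlo luminescence.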 It counts as functional, cell-based. On the technique in general: In a reporter assay the amount or activity of a reporter protein is the signal.
The next assay relates to INS1. Nature of the assay: beta cell apoptosis inhibitors, cytokine rescue, dose response, luminescence, retest (AID 449756).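 Further: cell death triggered by IL-1 beta plus TNF-alpha plus IFN-gamma mixture; protective hits raise ATP signal compared with cytokine alone wells.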 Particulars: Rattus norvegicus. It is filed as functional, cell-based.

Sequence of Paired box protein Pax-8 (Q06710 whole entry): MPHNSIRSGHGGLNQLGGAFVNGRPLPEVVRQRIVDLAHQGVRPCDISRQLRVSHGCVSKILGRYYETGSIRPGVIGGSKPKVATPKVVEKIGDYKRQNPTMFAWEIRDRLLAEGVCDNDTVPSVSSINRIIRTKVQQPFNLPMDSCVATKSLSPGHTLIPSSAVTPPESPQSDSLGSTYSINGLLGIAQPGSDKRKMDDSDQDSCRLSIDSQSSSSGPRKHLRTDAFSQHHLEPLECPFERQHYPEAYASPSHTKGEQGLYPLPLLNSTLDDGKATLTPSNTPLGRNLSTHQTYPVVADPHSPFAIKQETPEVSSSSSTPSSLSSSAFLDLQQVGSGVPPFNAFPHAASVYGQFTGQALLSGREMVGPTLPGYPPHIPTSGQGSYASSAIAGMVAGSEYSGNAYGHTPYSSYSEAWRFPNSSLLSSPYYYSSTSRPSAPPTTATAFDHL

As for `COc1ccc(-n2c3nc4ccccc4nc3c3c(=N)oc(C)nc32)cc1`, the AC50 (usually the concentration giving half of the maximal activity seen) in assay [1] is > 20000 nM (inactive). For the compound `O=C(/C=C/c1cccs1)NC(=S)NNC(=O)c1ccccc1O`, the AC50 on Paired box protein Pax-8 was 2350 nM (active). With `O=C(N/N=C1\C/C(=N\NC(=O)c2ccncc2)c2ccccc21)c1ccncc1`, the concentration at half-maximal activity (AC50) in assay [1] was 4720 nM (active). Consider `CC(=O)N(Cc1ccc(F)cc1)C1=C(NCCc2ccccc2)C(=O)c2ccccc2C1=O`, for which the AC50 in the assay with INS1 is 2180 nM (active).

For the compound `CCCCC(=O)NC(c1ccccc1)c1ccc2cccnc2c1O` (stereo unspecified), the half-maximal activity concentration (AC50) in the assay with INS1 is 614 nM (active); at Paired box protein Pax-8 it was 3240 nM (active).
